Source: ChEMBL document CHEMBL4342418, “1,2,3-Triazole-containing hybrids as potential anticancer agents: Current developments, action mechanisms and structure-activity relationships” (Eur J Med Chem, 2019)
≈ marks a conversion by molar mass, not a printed value.

What was measured:
[1] = test system: K562; experiment: Antiproliferative activity against human K562 cells assessed as reduction in cell viability after 24 hrs by MTT assay; assay type: functional, cell-based; details: K562, 24 h
[2] = test system: PBMC; experiment: Cytotoxicity against human PBMC cells assessed as reduction in cell viability after 24 hrs by MTT assay; assay type: cell-based
[3] = test system: HL-60; experiment: Antiproliferative activity against human HL60 cells assessed as reduction in cell viability after 24 hrs by MTT assay; assay type: functional, cell-based; details: HL-60, 24 h
[4] = test system: K562-Lucena 1; experiment: Antiproliferative activity against human K562-Lucena 1 cells assessed as reduction in cell viability after 24 hrs by MTT assay; assay type: functional, cell-based; details: K562-Lucena 1, 24 h
[5] = test system: HeLa; experiment: Antiproliferative activity against human HeLa cells assessed as reduction in cell viability after 24 hrs by MTT assay; assay type: functional, cell-based
[6] = test system: SK-BR-3; experiment: Antiproliferative activity against human SKBR3 cells assessed as reduction in cell viability after 24 hrs by MTT assay; assay type: functional, cell-based; details: SK-BR-3, 24 h
[7] = test system: HepG2; experiment: Antiproliferative activity against human HepG2 cells assessed as reduction in cell viability after 24 hrs by MTT assay; assay type: functional, cell-based; details: HepG2, 24 h
[8] = test system: HCT-116; experiment: Antiproliferative activity against human HCT116 cells by MTT assay; assay type: functional, cell-based
[9] = test system: HepG2; experiment: Antiproliferative activity against human HepG2 cells by MTT assay; assay type: functional, cell-based
[10] = test system: K562; experiment: Antiproliferative activity against human K562 cells by MTT assay; assay type: functional, cell-based
[11] = test system: LoVo; experiment: Antiproliferative activity against human LoVo cells by MTT assay; assay type: functional, cell-based
[12] = test system: MCF7; experiment: Antiproliferative activity against human MCF7 cells assessed as reduction in cell viability after 72 hrs by MTT assay; assay type: functional, cell-based; details: MCF7, 72 h
[13] = test system: T47D; experiment: Antiproliferative activity against human T47D cells assessed as reduction in cell viability after 72 hrs by MTT assay; assay type: functional, cell-based
[14] = test system: HeLa; experiment: Antiproliferative activity against human HeLa cells assessed as reduction in cell viability after 72 hrs by MTT assay; assay type: functional, cell-based
[15] = test system: MDA-MB-231; experiment: Antiproliferative activity against human MDA-MB-231 cells assessed as reduction in cell viability after 72 hrs by MTT assay; assay type: functional, cell-based; details: MDA-MB-231, 72 h, read-out: IC50
[16] = test system: A-431; experiment: Antiproliferative activity against human A431 cells assessed as reduction in cell viability after 72 hrs by MTT assay; assay type: functional, cell-based; details: A-431, 72 h
[17] = test system: A2780; experiment: Antiproliferative activity against human A2780 cells assessed as reduction in cell viability after 72 hrs by MTT assay; assay type: functional, cell-based; details: A2780, 72 h
[18] = Antiproliferative activity against human […] cells assessed as reduction in cell viability after 72 hrs by MTT assay; assay type: functional, cell-based
[19] = test system: PC-3; experiment: Antiproliferative activity against human PC3 cells assessed as reduction in cell viability after 24 hrs by MTT assay; assay type: functional, cell-based; details: PC-3, 24 h
[20] = test system: HCT-116; experiment: Antiproliferative activity against human HCT116 cells assessed as reduction in cell viability after 24 hrs by MTT assay; assay type: functional, cell-based; details: HCT-116, 24 h
[21] = test system: MCF7; experiment: Antiproliferative activity against human MCF7 cells assessed as reduction in cell viability after 24 hrs by MTT assay; assay type: functional, cell-based; details: MCF7, 24 h
[22] = Cytotoxicity against human HEK cells assessed as reduction in cell viability after 24 hrs by MTT assay; assay type: cell-based; details: HEK293, 24 h
[23] = test system: Erythrocyte; experiment: Cytotoxicity against human RBC cells assessed as reduction in cell viability after 24 hrs by MTT assay; assay type: cell-based
[24] = test system: A549; experiment: Antiproliferative activity against human A549 cells; assay type: functional, cell-based
[25] = test system: HepG2; experiment: Antiproliferative activity against human HepG2 cells; assay type: functional, cell-based
[26] = test system: HeLa; experiment: Antiproliferative activity against human HeLa cells; assay type: functional, cell-based
[27] = test system: A549; experiment: cells; assay type: functional, cell-based; details: Homo sapiens
Description: Antiproliferative activity against human A549 cells by MTT assay

[28] = test system: NCI-H460; experiment: Antiproliferative activity against human H460 cells by MTT assay; assay type: functional, cell-based
[29] = test system: PC-3; experiment: cells; assay type: functional, cell-based; details: Homo sapiens, PC-3, 48 h
Description: Antiproliferative activity against human PC3 cells assessed as reduction in cell viability after 48 hrs by MTT assay

[30] = test system: SW-620; experiment: cells; assay type: functional, cell-based; details: Homo sapiens, SW-620, 48 h
Description: Antiproliferative activity against human SW620 cells assessed as reduction in cell viability after 48 hrs by MTT assay

[31] = test system: ASPC1; experiment: cells; assay type: functional, cell-based; details: Homo sapiens, ASPC1, 48 h
Description: Antiproliferative activity against human Aspc-1 cells assessed as reduction in cell viability after 48 hrs by MTT assay

[32] = test system: NCI-H23; experiment: cells; assay type: functional, cell-based; details: Homo sapiens, NCI-H23, 48 h
Description: Antiproliferative activity against human NCI-H23 cells assessed as reduction in cell viability after 48 hrs by MTT assay

[33] = test system: OVCAR-3; experiment: Antiproliferative activity against human OVCAR3 cells by SRB assay; assay type: functional
[34] = test system: Caov-3 cell line; experiment: Antiproliferative activity against human Caov3 cells by SRB assay; assay type: functional
[35] = test system: SK-OV-3; experiment: Antiproliferative activity against human SKOV3 cells by SRB assay; assay type: functional, cell-based

SMILES: COc1ccc(-c2cn(C3=CC(=O)c4ccccc4C3=O)nn2)cc1
- IC50 [1]: 14.3 to 99.2 µM
- IC50 [2]: 14.3 to 99.2 µM
- IC50 [3]: 14.3 to 99.2 µM
- IC50 [4]: 14.3 to 99.2 µM

SMILES: COc1ccc(-c2nnn(Cc3cc(F)ccc3F)c2-c2nc3cc(C)ccc3o2)cc1
- IC50 [5]: 6.8 µg/mL (≈ 15.7 µM)
- IC50 [6]: 7.1 µg/mL (≈ 16.4 µM)
- IC50 [7]: 11.2 µg/mL

SMILES: O=C(CCCCCCC(=O)Nc1ccccc1)NO [VORINOSTAT]
- IC50 [8]: 4.95 to 7.11 µM
- IC50 [9]: 4.95 to 7.11 µM
- IC50 [10]: 4.95 to 7.11 µM
- IC50 [11]: 4.95 to 7.11 µM

SMILES: CCc1ccc(-c2cn([C@H]3C[C@H]4[C@@H]5CCc6cc(OCc7ccccc7)ccc6[C@H]5CC[C@@]4(C)[C@@H]3O)nn2)cc1
- IC50 [12]: 2.4 to 8.3 µM
- IC50 [13]: 2.4 to 8.3 µM
- IC50 [14]: 2.4 to 8.3 µM
- IC50 [15]: 2.4 to 8.3 µM
- IC50 [16]: 2.4 to 8.3 µM
- IC50 [17]: 2.4 to 8.3 µM
- IC50 [18]: 2.4 to 8.3 µM

SMILES: COc1cc2nc(Cl)nc(Nc3ccc(Cn4cc(-c5ccccc5)nn4)cc3)c2cc1OC
- IC50 [19]: 20.7 to 68 µM
- IC50 [7]: 20.7 to 68 µM
- IC50 [20]: 20.7 to 68 µM
- IC50 [21]: 20.7 to 68 µM
- IC50 [22]: 40.3 µM
- IC50 [23]: 45.6 µM
- IC50 [2]: 37.4 µM

SMILES: CCCCCCc1ccc(-c2cn(Cc3cc(=O)oc4cc(O)ccc34)nn2)cc1
- IC50 [24]: 8.73 to 9.16 µM
- IC50 [25]: 8.73 to 9.16 µM
- IC50 [26]: 8.73 to 9.16 µM

SMILES: COc1ccc2c(c1)OCC(=O)N2Cc1cn(Cc2ccccc2)nn1
- IC50 [27]: 10 µM
- IC50 [28]: 8 µM

SMILES: Cc1ccc2c(c1)/C(=N\O)C(=O)N2Cc1cn(CCCC(=O)NO)nn1
- IC50 [29]: 0.49 to 0.76 µM
- IC50 [30]: 0.49 to 0.76 µM
- IC50 [31]: 0.49 to 0.76 µM
- IC50 [32]: 0.49 to 0.76 µM

SMILES: COc1cc(O)c2c(=O)cc(-c3ccc(OCc4cn(-c5ccccc5F)nn4)cc3)oc2c1
- GI50 [33]: 10 to 20 µM
- GI50 [34]: 10 to 20 µM
- GI50 [35]: 10 to 20 µM

SMILES: CC(C)(C)c1ccc(-c2cn([C@H]3C[C@H]4[C@@H]5CCc6cc(OCc7ccccc7)ccc6[C@H]5CC[C@@]4(C)[C@@H]3O)nn2)cc1
- IC50 [12]: 2.4 to 8.3 µM
- IC50 [13]: 2.4 to 8.3 µM
- IC50 [14]: 2.4 to 8.3 µM
- IC50 [15]: 2.4 to 8.3 µM
- IC50 [16]: 2.4 to 8.3 µM
- IC50 [17]: 2.4 to 8.3 µM
- IC50 [18]: 2.4 to 8.3 µM
